Data published in patent USRE48461E1, “Modulation of androgen receptor expression” (Ionis Pharmaceuticals, Inc., priority 2012, dated 2021).

Columns and labels:
[1] = Body and organ weights in cynomolgus monkeys; settings: cynomolgus monkey, 40 mg/kg s.c.
Description: (§3) Prior to the study, the monkeys were kept in quarantine for a 30-day period, during which the animals were observed daily for general health. The monkeys were 2-4 years old and weighed between 2 and 4 kg. Thirteen groups of four randomly assigned male cynomolgus monkeys each were injected subcutaneously with ISIS oligonucleotide or PBS. PBS solution or ISIS oligonucleotides, at a dose of 40 mg/kg, were administered with a loading regimen consisting of four doses on the first week of the study (days 1, 3, 5, and 7), followed by a maintenance regimen consisting of once weekly administration starting on Day 14 (weeks 2 to 6). Subcutaneous injections were performed in clock-wise rotations at 4 sites on the back; one site per dose. The injection sites were delineated by tattoo, while sedated using ketamine, and were separated by a minimum of 3 cm.
To evaluate the effect of ISIS oligonucleotides on the overall health of the animals, body and organ weights were measured.

[2] = cynomolgus monkey, in vivo, sc, 40 mg/kg
[3] = Plasma BUN and creatinine in cynomolgus monkeys; settings: cynomolgus monkey, 40 mg/kg s.c., day 44
Description: as §3
To evaluate the effect of ISIS oligonucleotides on kidney function, the monkeys were fasted overnight. Approximately, 1.5 mL of blood samples were collected from all the study groups on day 44. Blood was collected in tubes without anticoagulant for serum separation. The tubes were kept at room temperature for a minimum of 90 min and then centrifuged at 3,000 rpm for 10 min. Levels of BUN and creatinine were measured using a Toshiba 120FR NEO chemistry analyzer (Toshiba Co., Japan).

[4] = Full-length oligonucleotide concentration in kidney and liver of cynomolgus monkeys; settings: cynomolgus monkey, 40 mg/kg subcutaneously
Description: as §3
The concentrations of the full-length oligonucleotide in the kidney and the liver of select treatment groups were measured. The method used is a modification of previously published methods (Leeds et al., 1996; Geary et al., 1999) which consist of a phenol-chloroform (liquid-liquid) extraction followed by a solid phase extraction.

[5] = Hematological parameters in cynomolgus monkeys; settings: cynomolgus monkey, 40 mg/kg s.c., day 44
Description: as §3
To evaluate any effect of ISIS oligonucleotides in cynomolgus monkeys on hematologic parameters, blood samples of approximately 0.5 mL of blood was collected day 44 from each of the available study animals in tubes containing K2-EDTA. Samples were analyzed for red blood cell (RBC) count, white blood cells (WBC) count, platelet count, hemoglobin content and hematocrit, using an ADVIA2120i hematology analyzer (SIEMENS, USA).

[6] = system: V7 splice variant of the AR mRNA; experiment: AR V7 splice variant mRNA in CWR22-RV1 cells (RT-PCR SYBR Green); assay type: cell-based, human; settings: RNAiMax, 6 days
Description: CWR22-RV1 cells were plated and transfected using RNAiMax reagent (Life Technologies) with ISIS oligonucleotides at 1.7 nM, 5.0 nM, 16.7 nM, or 50 nM concentrations. ISIS 347526 was included as a negative control. After a treatment period of 6 days, the target reduction and proliferative capacity of the cancer cells was measured.
Antisense inhibition of AR full-length mRNA was measured with the RTS3559 primer probe set. The results are presented in Table 63 as percent inhibition relative to non-treated cells. The reduction in V7 splice variant of the AR mRNA was also measured by RT-PCR using SYBR Green staining (Hu, R. et al., Cancer Res. 2009. 69: 16-22). The results are presented in Table 64, as percent reduction, relative to non-treated cells. Cell proliferation was measured with CellTiter 96® AQueous One Solution Cell Proliferation kit (Promega), following the manufacturer's instructions. Results are presented in Table 65 as percent inhibition of proliferation, relative to non-treated cells.

C4-2B cells = experiment: C4-2B cell proliferation by free uptake (MTT); assay type: cell-based, human; settings: day 6
Description: Cells were plated at a concentration of 1,000 cells/well in 96-well plates to measure cell proliferation, and at 4,000 cells/well to measure target reduction. ISIS 549458, ISIS 549372, ISIS 549434, and ISIS 554221 were added individually at 0.04 μM, 0.20 μM, 1.00 μM, or 5.00 μM. After an incubation period of 24 hrs, mRNA levels were measured using hAR_LTS00943.
On day 6, cells plated for measuring proliferation were incubated with MTT reagent until the development of color. Color intensity was measured using a spectrophotometer at 490 nm.

full-length AR = experiment: Western blot of full-length AR in MDV3100-resistant C4-2B cells; assay type: cell-based, human; settings: C4-2B MR cells (Example 16)
Description: (§1) ISIS 549372, ISIS 549434, and ISIS 554221 at 1 μM concentration of antisense oligonucleotide were each added to the culture media at 1 μM concentration for free uptake by the cells. After a treatment period of 2 days, cells were harvested in RIPA buffer containing protease inhibitors. The presence of bands for full-length AR, as well as the variant form, AR-V7, was detected by western blot using AR antibody (N-20, Santa Cruz).
(§2) Western analysis of full-length AR, as well as the AR-V7 variant, was also conducted in a manner similar to the assay described above.

AR-V7 = experiment: Western blot of AR-V7 in MDV3100-resistant C4-2B cells; assay type: cell-based, human; settings: C4-2B MR cells (Example 16)
Description: as §1, §2

Row | Sequence | tolerability: body and organ weights [1] | Urine protein/creatinine ratio [2] | tolerability: kidney function [3] | Oligonucleotide concentration, Kidney [4] | tolerability: hematology [5] | Percent inhibition of AR splice variant, V7 ([6]; dose 5.0 nM) | Percent inhibition of AR splice variant, V7 ([6]; dose 16.7 nM) | Percent inhibition of AR splice variant, V7 ([6]; dose 50.0 nM) | Percent inhibition of cell proliferation (C4-2B cells; dose 0.04 μM) | Percent inhibition of cell proliferation (C4-2B cells; dose 0.20 μM) | Percent inhibition of cell proliferation (C4-2B cells; dose 1.00 μM) | Percent inhibition of cell proliferation (C4-2B cells; dose 5.00 μM) | levels of full-length AR (Western analysis) (full-length AR) | levels of AR-V7 (Western analysis) (AR-V7)
1 | TTGATTTAATGGTTGC [ISIS 560131] (MOE and (S)-cEt gapmer chemistry, further chemistry not given here) | well tolerated in terms of the body and organ weights of the monkeys | 0.02 | well tolerated in terms of the kidney function of the monkeys | 2029 μg/g tissue | well tolerated in terms of the hematology of the monkeys |  |  |  |  |  |  |  |  | 
2 | GTTGATTTAATGGTTG (all phosphorothioate, sugars by position not given here; further chemistry not fully specified) [ISIS 549458] |  |  |  |  |  | 34% | 58% | 82% | 7% | 31% | 45% | 41% | reduced levels of full-length AR and AR-V7 | reduced levels of full-length AR and AR-V7
